Molecules are shown by their SMILES.

In data set [1] the test system is right lateral PFC. To be noted: patients with MDD, after ketamine treatment; cited from earlier work.
The conditions of data set [2]: in vivo; cited from earlier work.
Data set [3] relates to 5-HT2A receptor. As to conditions: cited from earlier work.
The target of data set [4] is D2 receptor. To be noted: presynaptic D2 receptor partial agonism and postsynaptic D2 receptor antagonism; cited from earlier work.
Data set [5] concerns NMDA/AMPA receptors and downstream BDNF and mTOR signaling. As to conditions: compared with ketamine; cited from earlier work.
For data set [6], the system named is patients with acute exacerbated schizophrenia. Nature of the data set: Clinical studies in patients with acute exacerbated schizophrenia, emotional experience symptoms. To be noted: 60 mg P.O. once daily, up to 28 days, two clinical studies, vs placebo. The data set is classed as in vivo, human. The source says: Social avoidance can be a critical and debilitating symptom in patients suffering from anxiety disorders, especially social anxiety disorder, as well as in patients suffering from traumatic anxiety disorders. Social avoidance is often one of the key determinants of whether a person with a severe anxiety disorder is capable of maintaining familial relationships or employment relationships. […] Negative symptoms of schizophrenia can be divided into two categories: emotional experience (e.g., emotional withdrawal, passive social withdrawal, active social avoidance) and emotional expression (e.g., blunted effect, poor rapport, lack of spontaneity, and motor retardation). […] These are the symptoms that are most highly correlated with interpersonal functioning.

Data set [7] concerns PFC mTORC1-related signaling pathways. In words: PFC mTORC1-related signaling and neurotrophic factor genes after acute administration. The data set is classed as in vivo. The source says:
As a result, glutamate release is increased which enhances AMPA mediated currents, BDNF release, and mTORC1 activation. Increased synaptogenesis has been associated with enhanced mTORC1 signaling in the PFC.

Data set [8] concerns the target 5-HT2A receptor. As to conditions: read-out: 5-HT2A receptor antagonism Ki; cited from earlier work.
The test system of data set [9] is NMDA and AMPA receptor. To be noted: rat mPFC slices; cited from earlier work.
For data set [10], the system named is glutamatergic NMDA NR2B (GluN2B) receptors. As to conditions: mesolimbic; cited from earlier work.
Data set [11] concerns medial prefrontal cortex neurons. To be noted: mouse, in vivo; cited from earlier work.
The subject of data set [12] is dendritic spines in cells of the frontal cortex. To be noted: cited from earlier work.
The subject of data set [13] is serotonin receptor. To be noted: pre-treatment, dose blocking about 30% of 5-HT2A receptors; cited from earlier work.
Data set [14] deals with 5-HT2A receptor. As to conditions: pre-treatment; cited from earlier work.

As for `CNC1(c2ccccc2Cl)CCCCC1=O` (centres unmarked) [ketamine], in data set [1], the “functional connectivity in the right lateral PFC” value is reported as “improved functional connectivity in the right lateral PFC”.
On to `CN(C)CCc1c[nH]c2cccc(O)c12` [Psilocin], for which the side effects entry in [2] is “can cause nausea and panic attacks”. Also, in data set [3], the “5-HT2A receptor functional activity” value was “strong agonist of the 5-HT2A receptor”.
On to `CN1CCN2c3c(cccc31)[C@@H]1CN(CCCC(=O)c3ccc(F)cc3)CC[C@@H]12` [Lumateperone, 4-((6bR,10aS)-3-methyl-2,3,6b,9,10,10a-hexahydro-1H-pyrido[3′,4′: 4,5]pyrrolo[1,2,3-de]quinoxalin-8 (7H)-yl)-1-(4-fluorophenyl)-1-butanone], for which, in data set [4], the Ki (usually the dissociation constant of the complex between target and ligand, obtained from inhibition or displacement) is 32 nM. In addition, the “activity on NMDA/AMPA receptors and downstream BDNF and mTOR signaling” value in data set [5] is “very similar activity on NMDA/AMPA receptors and downstream BDNF and mTOR signaling as ketamine”. Besides, the “symptoms of emotional experience” value in data set [6] is “significant and unexpected improvement in symptoms of emotional experience compared to placebo”. In addition, in data set [3], the “5-HT2A receptor functional activity” value is “strong antagonist of the 5-HT2A receptor” and the “serotonin receptor agonist activity” value is listed as “does not have serotonin receptor agonist activity”. Moreover, in [7], the “PFC mTORC1-related signaling and neurotrophic factor genes” value was “stimulates PFC mTORC1-related signaling pathways, as well as some important genes coding for neurotrophic factors, such as BDNF and VEGF”. For the same compound, the Ki in data set [8] was 0.5 nM. The “glutamatergic neurotransmission, NMDA and AMPA receptor conductance” value in [9] was “enhance glutamatergic neurotransmission by effects on both NMDA and AMPA receptor conductance”. Moreover, the “phosphorylation of NMDA NR2B (GluN2B) receptors” value in data set [10] is “stimulates phosphorylation of glutamatergic NMDA NR2B (GluN2B) receptors in a mesolimbic specific manner”.
As for `CN(C)CCc1c[nH]c2cccc(OP(=O)(O)O)c12` [psilocybin], the “excitatory neurotransmission in medial prefrontal cortex (mEPSCs)” value in data set [11] is on record as “increased excitatory neurotransmission in the medial prefrontal cortex”. The “5-HT2A receptor functional activity” value in data set [3] was “strong agonist of the 5-HT2A receptor”. In [12] (following the single dose), the “persistence of changes in dendritic spine density” value is listed as “at least a month”. Also, the “dendritic spine formation/elimination rate” value in data set [12] (male and female mice) is “increased formation rate, rather than reduced elimination rate”. In addition, in data set [12] (single dose, within one day), the “dendritic spine density and spine head width” value is reported as “measurable increase in dendritic spine density, as well as increased spine head width, within one day”.
With `O=C(c1ccc(F)cc1)C1CCN(CCn2c(=O)[nH]c3ccccc3c2=O)CC1` [ketanserin], the “psilocybin-induced head twitch response” value in data set [13] is recorded as “sufficient to block the psilocybin-induced head twitch response”. In addition, the 5-HT2A receptors blocked entry in data set [14] is recorded as “about 30%”. For the same compound, the “effect on psilocybin-induced growth of dendritic spines” value in [12] (pre-treatment with 5-HT2A receptor antagonist) is given as “did not eliminate the psilocybin-induced growth of dendritic spines”.
